# Laboratory results published in patent US20100291010A1, “NOVEL ESTERS AND COMPOSITIONS AND USES THEREOF” (INNOSPEC LIMITED, priority 2007, published 2010).
# Source text: These two sunscreens are difficult to dissolve and keep in solution for use in sunscreen formulations for optimal SPF (Sun-Protection Factors). Higher solvency for a sunscreen ingredient is described as it allows higher concentrations of the sunscreen active ingredient in a formulation. […] The liquid organic sunscreens that are commonly used as octylsalicylate (OS) and octyl-methoxycinnamate (OMC).
compound,measurement,value
"COc1ccc(C(=O)c2ccccc2)c(O)c1 [Benzophenone-3, 2 hydroxy-4-methoxybenzophenone]",Solubility in Finester LP (%),10%
same,Solubility in Finsolv TN (%),15%
